Like-named read-outs stand apart in the source and are kept apart here.
Key:
RSV = assay: Antiviral assay (PRA): inhibition of RSV syncytial plaque formation on Hep2 cell monolayers; assay type: cell-based; settings: human respiratory syncytial virus, read-out: PRA (IC50)
Description: The lower the observed level of fusion, the greater the antiviral activity of the compound was determined to be. Uninfected confluent monolayers (seeded at 2.2×10^4 cells/well) of Hep2 cells were grown in microtiter wells (96-well plates) in EMEM (Eagle Minimum Essential Medium w/o L-glutamine [Bio Whittaker Cat. […] Bio Whittaker Cat. No. 14-[…]), antibiotics (penicillin/streptomycin; Bio Whittaker Cat. […] The plates were incubated for 24 hours and used for antiviral assays and cytotoxicity assays. To prepare Hep2 cells for addition to uninfected cells, cultures of […] infected Hep2 cells were washed with DPBS (Dulbecco's Phosphate Buffered Saline w/o calcium or magnesium; Bio Whittaker Cat. […] Gibco Life Technologies Cat. No. 15040-017). The cells were spun for 10 minutes and resuspended in 3% FBS. Cell counts were performed using a hemacytometer. Persistent cells were added to the uninfected Hep2 cells. The antiviral assay was conducted by first removing all medium from the wells containing uninfected Hep2 cells, adding 100 μl complete EMEM, then adding hetero-substituted benzimidazole compounds (eight 3-fold dilutions with 20 μM concentration as the highest final concentration) in 50 μl complete EMEM. Approximately 50 […] plaque forming units (PFU) of RSV in 50 μl was added per well and the plates were incubated in a CO2 incubator at 37° C. for 48 hours. Each plate contained uninfected control wells and infected untreated control wells for calculation of % inhibition (EC50) for each concentration. After incubation, cells in control wells were checked for fusion centers, medium was removed from the wells followed by addition to each well of either Crystal Violet stain or XTT. With respect to Crystal Violet, approximately 50μl 0.25% Crystal Violet stain in methanol was added to each well. The wells were rinsed immediately, to remove excess stain, and were allowed to dry. The number of syncytia per well were then counted, using a dissecting microscope. For antiviral assays at 48 hours post infection, cells in control wells were checked for syncytial plaques. Medium was removed from the wells followed by addition of approximately 50 Al Crystal Violet stain (0.25% Crystal Violet, 0.25% Giemsa dissolved in 10% formaldehyde, 70% methanol, and 20% H2O). The wells were incubated at room temperature for 5 minutes, rinsed with H2O to remove excess stain, and allowed to dry. The number of syncytia per well were counted using a dissecting microscope. The 50% inhibitory concentration (EC50) for each compound was calculated from the dose response curve. The compounds listed in Tables 1-2 have been screened for inhibitory activity against RSV.

[1] = XTT cytotoxicity assay on uninfected Hep2 cells; assay type: cell-based; settings: human
Description: Uninfected confluent monolayers (seeded at 2.2×10^4 cells/well) of Hep2 cells were grown in microtiter wells (96-well plates) in EMEM (Eagle Minimum Essential Medium w/o L-glutamine [Bio Whittaker Cat. No. 12-125F] with 3% fetal bovine serum (FBS; which had been heat inactivated for 30 minutes at 56° C.; Bio Whittaker Cat. No. 14-501F), antibiotics (penicillin/streptomycin; Bio Whittaker Cat. No. 17-602E) added at 1%, and glutamine added at 1% (complete EMEM). The plates were incubated for 24 hours and used for antiviral assays and cytotoxicity assays.
Cytotoxicity assays were conducted by first removing all medium from the well containing uninfected Hep2 cells, adding 100 μl complete EMEM, and then adding hetero-substituted benzimidazole compounds (eight 3-fold dilutions with 100 μM concentration as the highest final concentration). Complete EMEM (50 μl) was added to each well instead of virus and the plates were incubated in a CO2 incubator at 37° C. for 48 hours.
At 48 hours, the cytotoxicity assays were developed by adding to each well 50 μl of XTT (1 mg/ml in PBS) containing 0.01-0.02 mM of the electron coupling agent phenazine methosulfate (PMS). The plates were incubated for 2-4 hours at 37° C. and then read in a 96-well plate reader at 450 nm. Plotting the % average OD of treated wells compared to the cell control vs. compound concentration generated dose response curves. CC50 (50% inhibitory cytotoxic concentration) values for each compound were then calculated from these curves. […]

[2] = HEp-2, Table 1, RSV-infected Hep2 cells, 48 hours, syncytia counted
[3] = HEp-2, Table 2, RSV-infected Hep2 cells, 48 hours, syncytia counted

IC50 (RSV; [2]) [nM] | IC50 (RSV; [3]) [nM] | SMILES | IC50 (RSV; HEp-2, 48 h) [nM] | CC50 at 48 h ([1]; Table 1, uninfected Hep2 cells, 48 hours, read-out: XTT (CC50)) [µM] | CC50 at 48 h [1] [µM]
 |  | OCCN(CCO)CCNCc1nc2cccnc2n1Cc1nc2ccccc2[nH]1 [compound 1, 2-[(2-{[3-(1H-Benzoimidazol-2-ylmethyl)-3H-imidazo[4,5-b]pyridin-2-ylmethyl]-amino}-ethyl)-(2-hydroxy-ethyl)-amino]-ethanol] | 160 | ≥ 100 | 
240 |  | c1ccc2[nH]c(Cn3c(CNCCN4CCOCC4)nc4cccnc43)nc2c1 [compound 2, [3-(1H-Benzoimidazol-2-ylmethyl)-3H-imidazo[4,5-b]pyridin-2-ylmethyl]-(2-morpholin-4-yl-ethyl)-amine] |  |  | ≥ 100
150 |  | COCCN(C)Cc1nc2cccnc2n1Cc1nc2ccccc2[nH]1 [compound 3, [3-(1H-Benzoimidazol-2-ylmethyl)-3H-imidazo[4,5-b]pyridin-2-ylmethyl]-(2-methoxy-ethyl)-methyl-amine] |  |  | ≥ 100
190 |  | c1ccc2[nH]c(Cn3c(CNCCCN4CCOCC4)nc4cccnc43)nc2c1 [compound 4, [3-(1H-Benzoimidazol-2-ylmethyl)-3H-imidazo[4,5-b]pyridin-2-ylmethyl]-(3-morpholin-4-yl-propyl)-amine] |  |  | ≥ 100
9 |  | CN1CCN(CCCNCc2nc3cccnc3n2Cc2nc3ccccc3[nH]2)CC1 [compound 5, [3-(1H-Benzoimidazol-2-ylmethyl)-3H-imidazo[4,5-b]pyridin-2-ylmethyl]-[3-(4-methyl-piperazin-1-yl)-propyl]-amine] |  |  | ≥ 100
190 |  | OCCN(CCO)CCCNCc1nc2cccnc2n1Cc1nc2ccccc2[nH]1 [compound 6, 2-[(3-{[3-(1H-Benzoimidazol-2-ylmethyl)-3H-imidazo[4,5-b]pyridin-2-ylmethyl]-amino}-propyl)-(2-hydroxy-ethyl)-amino]-ethanol] |  |  | ≥ 100
4 |  | c1ccc2[nH]c(Cn3c(CNC4CCCC4)nc4cccnc43)nc2c1 [compound 7, [3-(1H-Benzoimidazol-2-ylmethyl)-3H-imidazo[4,5-b]pyridin-2-ylmethyl]-cyclopentyl-amine] |  |  | ≥ 100
5 |  | CC(C)N(Cc1ccccc1)Cc1nc2cccnc2n1Cc1nc2ccccc2[nH]1 [compound 8, [3-(1H-Benzoimidazol-2-ylmethyl)-3H-imidazo[4,5-b]pyridin-2-ylmethyl]-benzyl-isopropyl-amine] |  |  | ≥ 100
3 |  | CC(C)N(C)Cc1nc2cccnc2n1Cc1nc2ccccc2[nH]1 [compound 9, [3-(1H-Benzoimidazol-2-ylmethyl)-3H-imidazo[4,5-b]pyridin-2-ylmethyl]-isopropyl-methyl-amine] |  |  | ≥ 100
5 |  | CC(C)N(Cc1nc2cccnc2n1Cc1nc2ccccc2[nH]1)C(C)C [compound 12, [3-(1H-Benzoimidazol-2-ylmethyl)-3H-imidazo[4,5-b]pyridin-2-ylmethyl]-diisopropyl-amine] |  |  | ≥ 100
 | 1 | c1ccc2[nH]c(Cn3c(CN4CCOCC4)nc4cccnc43)nc2c1 [compound 13, 3-(1H-Benzoimidazol-2-ylmethyl)-2-morpholin-4-ylmethyl-3H-imidazo[4,5-b]pyridine] |  |  | ≥ 100
 | 5 | FC(F)(F)c1ccc(N2CCN(Cc3nc4cccnc4n3Cc3nc4ccccc4[nH]3)CC2)cc1 [compound 14, 3-(1H-Benzoimidazol-2-ylmethyl)-2-[4-(4-trifluoromethyl-phenyl)-piperazin-1-ylmethyl]-3H-imidazo[4,5-b]pyridine] |  |  | ≥ 100
 | 13 | Oc1cc2c(cc1O)CN(Cc1nc3cccnc3n1Cc1nc3ccccc3[nH]1)CC2 [compound 15, 2-[3-(1H-Benzoimidazol-2-ylmethyl)-3H-imidazo[4,5-b]pyridin-2-ylmethyl]-1,2,3,4-tetrahydro-isoquinoline-6,7-diol] |  |  | ≥ 100
 | 4 | CC(=O)N1CCN(Cc2nc3cccnc3n2Cc2nc3ccccc3[nH]2)CC1 [compound 18, 1-{4-[3-(1H-Benzoimidazol-2-ylmethyl)-3H-imidazo[4,5-b]pyridin-2-ylmethyl]-piperazin-1-yl}-ethanone] |  |  | ≥ 100
 |  | Cn1cnc(S(=O)(=O)N2CCN(Cc3nc4cccnc4n3Cc3nc4ccccc4[nH]3)CC2)c1 [compound 19, 3-(1H-Benzoimidazol-2-ylmethyl)-2-[4-(1-methyl-1H-imidazole-4-sulfonyl)-piperazin-1-ylmethyl]-3H-imidazo[4,5-b]pyridine] |  |  | ≥ 100
 | 5 | O=C(Nc1ccc2c(c1)OCCCO2)N1CCN(Cc2nc3cccnc3n2Cc2nc3ccccc3[nH]2)CC1 [compound 20, 4-[3-(1H-Benzoimidazol-2-ylmethyl)-3H-imidazo[4,5-b]pyridin-2-ylmethyl]-piperazine-1-carboxylic acid (3,4-dihydro-2H-benzo[b][1,4]dioxepin-7-yl)-amide] |  |  | ≥ 100
 | 13 | O=C(c1ccco1)N1CCN(Cc2nc3cccnc3n2Cc2nc3ccccc3[nH]2)CC1 [compound 21, {4-[3-(1H-Benzoimidazol-2-ylmethyl)-3H-imidazo[4,5-b]pyridin-2-ylmethyl]-piperazin-1-yl}-furan-2-yl-methanone] |  |  | ≥ 100
 | 2 | OCC1CCCN1Cc1nc2cccnc2n1Cc1nc2ccccc2[nH]1 (stereo not drawn) [compound 22, {1-[3-(1H-Benzoimidazol-2-ylmethyl)-3H-imidazo[4,5-b]pyridin-2-ylmethyl]-pyrrolidin-2-yl}-methanol] |  |  | ≥ 100
 | 10 | OCCC1CCCCN1Cc1nc2cccnc2n1Cc1nc2ccccc2[nH]1 (stereo not drawn) [compound 23, 2-{1-[3-(1H-Benzoimidazol-2-ylmethyl)-3H-imidazo[4,5-b]pyridin-2-ylmethyl]-piperidin-2-yl}-ethanol] |  |  | ≥ 100
 | 20 | c1ccc2c(c1)CN(Cc1nc3cccnc3n1Cc1nc3ccccc3[nH]1)C2 [compound 27, 3-(1H-Benzoimidazol-2-ylmethyl)-2-(1,3-dihydro-isoindol-2-ylmethyl)-3H-imidazo[4,5-b]pyridine] |  |  | ≥ 100
 | 16 | Cc1cc(S(=O)(=O)N2CCN(Cc3nc4cccnc4n3Cc3nc4ccccc4[nH]3)CC2)c(C)s1 [compound 28, 3-(1H-Benzoimidazol-2-ylmethyl)-2-[4-(2,5-dimethyl-thiophene-3-sulfonyl)-piperazin-1-ylmethyl]-3H-imidazo[4,5-b]pyridine] |  |  | ≥ 100

SMILES | IC50 (RSV; [2]) [nM] | IC50 (RSV; [3]) [nM] | IC50 (RSV; HEp-2, 48 h) [nM] | CC50 at 48 h ([1]; Table 1, uninfected Hep2 cells, 48 hours, read-out: XTT (CC50)) [µM] | CC50 at 48 h [1] [µM]
c1ccc2[nH]c(Cn3c(CN4CCNCC4)nc4cccnc43)nc2c1 [compound 16, 3-(1H-Benzoimidazol-2-ylmethyl)-2-piperazin-1-ylmethyl-3H-imidazo[4,5-b]pyridine] |  | 120 |  |  | ≥ 100
O=C(Cc1ccccc1)N1CCN(Cc2nc3cccnc3n2Cc2nc3ccccc3[nH]2)CC1 [compound 17, 1-{4-[3-(1H-Benzoimidazol-2-ylmethyl)-3H-imidazo[4,5-b]pyridin-2-ylmethyl]-piperazin-1-yl}-2-phenyl-ethanone] |  | 20 |  |  | ≥ 100
